Measured values taken from patent US20080132505A1 (Glaxo Group Limited, priority 2004, published 2008).

Molecular target: human cannabinoid CB2 receptor (Homo sapiens, UniProt P34972)
Experiment: Cannabinoid CB2 receptor agonist activity (yeast reporter assay, FDGlu fluorescence)
Format: cell-based
Conditions: for EC50: EC50 value at the cloned human cannabinoid CB2 receptor; for Emax: read-out: efficacy value (Emax relative to HU210) at the cloned human cannabinoid CB2 receptor
Outline: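 Agonist-driven growth was read as fluorescein fluorescence (ex 485, em 535 nm) from FDGlu cleavage after 24 h at 30 °C, using yeast strain MMY23 carrying human CB2 and chimeric Gpa1/Gαi3. Medium had 10 mM 3-aminotriazole, pH 7.0; four-parameter fits gave EC50, with Emax and EMR versus HU210.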

human cannabinoid CB2 receptor, sequence (P34972 whole entry): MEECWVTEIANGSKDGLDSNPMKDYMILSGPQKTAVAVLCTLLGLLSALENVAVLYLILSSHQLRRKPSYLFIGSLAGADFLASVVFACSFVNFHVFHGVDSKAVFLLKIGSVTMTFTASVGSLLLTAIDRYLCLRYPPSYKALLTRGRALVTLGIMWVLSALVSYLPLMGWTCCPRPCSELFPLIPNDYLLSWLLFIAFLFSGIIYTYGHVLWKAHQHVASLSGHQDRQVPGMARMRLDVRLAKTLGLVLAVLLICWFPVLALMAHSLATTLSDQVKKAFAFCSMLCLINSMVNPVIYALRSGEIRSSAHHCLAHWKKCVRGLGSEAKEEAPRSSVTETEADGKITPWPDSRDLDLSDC

SMILES | EC50 [nM] | Emax [%]
O=C(NCC1CCOCC1)c1cnc(Nc2ccc(C(F)(F)F)cc2Cl)nc1C(F)(F)F [Example 236, 2-(2-Chloro-4-trifluoromethyl-phenylamino)-4-trifluoromethyl-pyrimidine-5-carboxylic acid (tetrahydro-pyran-4-ylmethyl)-amide] | 20 to 300 | > 50
N#Cc1ccc(Nc2ncc(C(=O)NCC3CCCCC3)c(C(F)(F)F)n2)c(Cl)c1 [Example 237, 2-(2-Chloro-4-cyano-phenylamino)-4-trifluoromethyl-pyrimidine-5-carboxylic acid cyclohexylmethyl-amide] | 20 to 300 | > 50
O=C(NCC1CCCCC1)c1cnc(Nc2ccc(Cl)cc2Br)nc1C(F)(F)F [Example 238, 2-(2-Bromo-4-chloro-phenylamino)-4-trifluoromethyl-pyrimidine-5-carboxylic acid cyclohexylmethyl-amide] | 20 to 300 | > 50
O=C(NCC1CCOCC1)c1cnc(Nc2ccc(Cl)cc2Br)nc1C(F)(F)F [Example 239, 2-(2-Bromo-4-chloro-phenylamino)-4-trifluoromethyl-pyrimidine-5-carboxylic acid (tetrahydro-pyran-4-ylmethyl)-amide] | 20 to 300 | > 50
O=C(NCC1CC1)c1cnc(Nc2cccc(Br)c2)nc1C(F)(F)F [Example 240, 2-(3-Bromophenylamino)-4-trifluoromethyl-pyrimidine-5-carboxylic acid cyclopropylmethyl-amide] | 20 to 300 | > 50
O=C(NCC1CC1)c1cnc(Nc2ccc(Cl)cc2Cl)nc1C(F)(F)F [Example 241, 2-(2,4-Dichlorophenylamino)-4-trifluoromethylpyrimidine-5-carboxylic acid cyclopropylmethyl-amide] | 20 to 300 | > 50
O=C(NCC1CCCCC1)c1cnc(Nc2cccc(F)c2F)nc1C(F)(F)F [Example 242, 2-(2,3-Difluorophenylamino)-4-trifluoromethyl-pyrimidine-5-carboxylic acid cyclohexylmethyl-amide] | 20 to 300 | > 50
O=C(NCC1CCCCC1)c1cnc(Nc2cccc(C(F)(F)F)c2F)nc1C(F)(F)F [Example 243, 2-(2-Fluoro-3-trifluoromethyl-phenylamino)-4-trifluoromethyl-pyrimidine-5-carboxylic acid cyclohexylmethyl-amide] | 20 to 300 | > 50
Cc1ccc(Nc2ncc(C(=O)NCC3CCCCC3)c(C(F)(F)F)n2)c(Cl)c1 [Example 244, 2-(2-Chloro-4-methylphenylamino)-4-trifluoromethyl-pyrimidine-5-carboxylic acid cyclohexylmethyl-amide] | 20 to 300 | > 50
COc1cc(Nc2ncc(C(=O)NCC3CCCCC3)c(C(F)(F)F)n2)ccc1Cl [Example 245, 2-(4-Chloro-3-methoxyphenylamino)-4-trifluoromethyl-pyrimidine-5-carboxylic acid cyclohexylmethyl-amide] | 20 to 300 | > 50
Cc1ccc(Cl)cc1Nc1ncc(C(=O)NCC2CCCCC2)c(C(F)(F)F)n1 [Example 246, 2-(5-Chloro-2-methylphenylamino)-4-trifluoromethyl-pyrimidine-5-carboxylic acid cyclohexylmethyl-amide] | 20 to 300 | > 50
O=C(NCC1CCCC1)c1cnc(Nc2cccc(Cl)c2F)nc1C(F)(F)F [Example 248, 2-(3-Chloro-2-fluoro-phenylamino)-4-trifluoromethyl-pyrimidine-5-carboxylic acid cyclopentylmethyl-amide] | 20 to 300 | > 50
O=C(NCC1CCCC1)c1cnc(Nc2cc(F)ccc2Cl)nc1C(F)(F)F [Example 249, 2-(2-Chloro-5-fluoro-phenylamino)-4-trifluoromethyl-pyrimidine-5-carboxylic acid cyclopentylmethyl-amide] | 20 to 300 | > 50
O=C(NCC1CCOCC1)c1cnc(Nc2ccc(Cl)c(Cl)c2)nc1C(F)(F)F [Example 250, 2-(3,4-Dichlorophenylamino)-4-trifluoromethylpyrimidine-5-carboxylic acid (tetrahydro-pyran-4-ylmethyl)-amide] | 20 to 300 | > 50
O=C(NCC1CCCC1)c1cnc(Nc2ccccc2)nc1C(F)(F)F [Example 251, 2-(Phenylamino)-4-trifluoromethyl-pyrimidine-5-carboxylic acid cyclopentylmethyl-amide] | 20 to 300 | > 50
O=C(NCC1CCC1)c1cnc(Nc2cccc(C(F)(F)F)c2F)nc1C(F)(F)F [Example 252, 2-(2-Fluoro-3-trifluoromethyl-phenylamino)-4-trifluoromethyl-pyrimidine-5-carboxylic acid cyclobutylmethyl-amide] | 20 to 300 | > 50
Cc1cc(Cl)ccc1Nc1ncc(C(=O)NCC2CCC2)c(C(F)(F)F)n1 [Example 253, 2-(2-Methyl-4-chloro-phenylamino)-4-trifluoromethyl-pyrimidine-5-carboxylic acid cyclobutylmethyl-amide] | 20 to 300 | > 50
O=C(NCC1CCOCC1)c1cnc(Nc2ccc(Br)cc2C(F)(F)F)nc1C(F)(F)F [Example 254, 2-(2-Trifluoromethyl-4-bromo-phenylamino)-4-trifluoromethyl-pyrimidine-5-carboxylic acid (tetrahydro-pyran-4-ylmethyl)-amide] | 20 to 300 | > 50
O=C(NCC1CCSCC1)c1cnc(Nc2cccc(Cl)c2)nc1C(F)(F)F [Example 255, 2-(3-Chlorophenylamino)-4-trifluoromethyl-pyrimidine-5-carboxylic acid (tetrahydrothiopyran-4-ylmethyl) amide] | 20 to 300 | > 50
O=C(NCC1CCSCC1)c1cnc(Nc2ccc(Cl)cc2Cl)nc1C(F)(F)F [Example 256, 2-(2,4-Dichlorophenylamino)-4-trifluoromethyl-pyrimidin-5-carboxylic acid (tetrahydrothiopyran-4-ylmethyl) amide] | 20 to 300 | > 50
O=C(NCC1CCC1)c1cnc(Nc2ccccc2Cl)nc1C(F)(F)F [Example 257, 2-(2-Chlorophenylamino)-4-trifluoromethyl-pyrimidine-5-carboxylic acid cyclobutylmethyl-amide] | 300 to 1000 | > 50
O=C(NCC1CCC1)c1cnc(Nc2cc(F)cc(C(F)(F)F)c2)nc1C(F)(F)F [Example 258, 2-(3-Fluoro-5-trifluoromethylphenylamino)-4-trifluoromethyl-pyrimidine-5-carboxylic acid cyclobutylmethyl-amide] | 300 to 1000 | > 50
Cc1ccc(Cl)cc1Nc1ncc(C(=O)NCC2CCC2)c(C(F)(F)F)n1 [Example 259, 2-(5-Chloro-2-methylphenylamino)-4-trifluoromethyl-pyrimidine-5-carboxylic acid cyclobutylmethyl-amide] | 300 to 1000 | > 50
O=C(NCc1ccccc1)c1cnc(Nc2cccc(Cl)c2)nc1C(F)(F)F [Example 266, 2-(3-Chlorophenylamino)-4-trifluoromethylpyrimidine-5-carboxylic acid benzyl-amide] | 20 to 300 | > 50
